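Interpolation was linear, between the two tested concentrations surrounding the appropriate level; five concentrations were tested over 48 hours in 96-well plates. TGI is the concentration that stops growth completely.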
Columns and labels:
Experiment in all cases: NCI tumour cell line growth inhibition, 48 h
HOP-92 NSCLC = test system: HOP-92 NSCLC
SF-268 CNS = test system: SF-268 CNS
HCC-2998 colon = test system: HCC-2998 colon
HCT-15 colon = test system: HCT-15 colon
MDA-N = test system: MDA-N
HOP-62 NSCLC = test system: HOP-62 NSCLC
MOLT-4 leukemia = test system: MOLT-4 leukemia
OVCAR-4 ovarian = test system: OVCAR-4 ovarian
A498 renal = test system: A498 renal
HL-60(TB) leukemia = test system: HL-60(TB) leukemia
UO-31 renal = test system: UO-31 renal
CCRF-CEM leukemia = test system: CCRF-CEM leukemia
LOX IMVI melanoma = test system: LOX IMVI melanoma
RXF 393 renal = test system: RXF 393 renal
NCI-H23 lung = test system: NCI-H23 lung
NCI/ADR-RES ovarian = test system: NCI/ADR-RES ovarian
HT29 colon = test system: HT29 colon
MALME-3M melanoma = test system: MALME-3M melanoma
KM12 colon = test system: KM12 colon
DU-145 prostate = test system: DU-145 prostate
UACC-257 melanoma = test system: UACC-257 melanoma
SK-MEL-2 melanoma = test system: SK-MEL-2 melanoma
NCI-H460 lung = test system: NCI-H460 lung
NCI-H226 lung = test system: NCI-H226 lung
SK-OV-3 ovarian = test system: SK-OV-3 ovarian
IGROV1 ovarian = test system: IGROV1 ovarian
MCF7 breast = test system: MCF7 breast
MDA-MB-231 breast = test system: MDA-MB-231 breast
OVCAR-5 ovarian = test system: OVCAR-5 ovarian
HCT-116 colon = test system: HCT-116 colon
PC-3 prostate = test system: PC-3 prostate
M14 melanoma = test system: M14 melanoma
SNB-19 CNS = test system: SNB-19 CNS
COLO 205 colon = test system: COLO 205 colon
U251 CNS = test system: U251 CNS
RPMI-8226 leukemia = test system: RPMI-8226 leukemia
ACHN renal = test system: ACHN renal
NCI-H522 lung = test system: NCI-H522 lung
TK-10 renal = test system: TK-10 renal
OVCAR-3 ovarian = test system: OVCAR-3 ovarian
A549 NSCLC = test system: A549 NSCLC
OVCAR-8 ovarian = test system: OVCAR-8 ovarian
CAKI-1 renal = test system: CAKI-1 renal
SK-MEL-28 melanoma = test system: SK-MEL-28 melanoma
HS 578T breast = test system: HS 578T breast
T-47D breast = test system: T-47D breast
EKVX NSCLC = test system: EKVX NSCLC
SN12C renal = test system: SN12C renal
SW-620 colon = test system: SW-620 colon
SF-295 CNS = test system: SF-295 CNS
786-0 renal = test system: 786-0 renal
BT-549 breast = test system: BT-549 breast
SNB-75 CNS = test system: SNB-75 CNS
MDA-MB-435 = test system: MDA-MB-435
SF-539 CNS = test system: SF-539 CNS
UACC-62 melanoma = test system: UACC-62 melanoma
SK-MEL-5 melanoma = test system: SK-MEL-5 melanoma
K-562 leukemia = test system: K-562 leukemia
SR leukemia = test system: SR leukemia

## CCOc1ccc(C2Oc3c(cccc3OC)C=C2[N+](=O)[O-])cc1OCC (stereo not drawn)
HOP-92 NSCLC
  TGI: 27 µM
SF-268 CNS
  TGI: 47.2 µM
HCC-2998 colon
  TGI: 38.3 µM
HCT-15 colon
  TGI: 19 µM
MDA-N
  TGI: 5.79 µM
HOP-62 NSCLC
  TGI: 19.2 µM
MOLT-4 leukemia
  TGI: > 28.4 µM
OVCAR-4 ovarian
  TGI: 43.9 µM
A498 renal
  TGI: 24 µM
HL-60(TB) leukemia
  TGI: 7.07 µM
UO-31 renal
  TGI: 8.8 µM
CCRF-CEM leukemia
  TGI: 6.88 µM
LOX IMVI melanoma
  TGI: 5.52 µM
RXF 393 renal
  TGI: 11.5 µM
NCI-H23 lung
  TGI: 19.7 µM
NCI/ADR-RES ovarian
  TGI: 17.9 µM
HT29 colon
  TGI: 8.11 µM
MALME-3M melanoma
  TGI: 5.74 µM
KM12 colon
  TGI: 20.1 µM
DU-145 prostate
  TGI: 28.6 µM
UACC-257 melanoma
  TGI: 12.8 µM
SK-MEL-2 melanoma
  TGI: 19.8 µM
NCI-H460 lung
  TGI: 26.8 µM
NCI-H226 lung
  TGI: 46.6 µM
SK-OV-3 ovarian
  TGI: 64.9 µM
IGROV1 ovarian
  TGI: 11.1 µM
MCF7 breast
  TGI: > 100 µM
MDA-MB-231 breast
  TGI: 10.1 µM
OVCAR-5 ovarian
  TGI: 23.3 µM
HCT-116 colon
  TGI: 3.31 µM
PC-3 prostate
  TGI: 14.9 µM
M14 melanoma
  TGI: 7.01 µM
SNB-19 CNS
  TGI: 45.2 µM
COLO 205 colon
  TGI: 12.8 µM
U251 CNS
  TGI: 12.9 µM
RPMI-8226 leukemia
  TGI: 6.49 µM
ACHN renal
  TGI: 14.6 µM
NCI-H522 lung
  TGI: 3.7 µM
TK-10 renal
  TGI: 31.6 µM
OVCAR-3 ovarian
  TGI: 19.6 µM
A549 NSCLC
  TGI: 49.4 µM
OVCAR-8 ovarian
  TGI: 4.75 µM
CAKI-1 renal
  TGI: 17.3 µM
SK-MEL-28 melanoma
  TGI: 5.74 µM
HS 578T breast
  TGI: > 100 µM
T-47D breast
  TGI: > 47.5 µM
EKVX NSCLC
  TGI: 40 µM
SN12C renal
  TGI: > 67.1 µM
SW-620 colon
  TGI: 4.22 µM
SF-295 CNS
  TGI: 32.4 µM
786-0 renal
  TGI: 9.77 µM
BT-549 breast
  TGI: 29.6 µM
SNB-75 CNS
  TGI: > 56.5 µM
MDA-MB-435
  TGI: 16.7 µM
SF-539 CNS
  TGI: 5.24 µM
UACC-62 melanoma
  TGI: 23.3 µM
SK-MEL-5 melanoma
  TGI: 16.6 µM
K-562 leukemia
  TGI: 5.19 µM
SR leukemia
  TGI: 5.6 µM

## CC1(c2ccc(Cl)cc2)NC(=NCCO)c2ccccc21 (stereo not drawn)
HOP-92 NSCLC
  TGI: 77.9 µM
SF-268 CNS
  TGI: > 100 µM
HCC-2998 colon
  TGI: 24.8 µM
HCT-15 colon
  TGI: > 100 µM
MDA-N
  TGI: 26.9 µM
HOP-62 NSCLC
  TGI: > 100 µM
MOLT-4 leukemia
  TGI: 37.8 µM
OVCAR-4 ovarian
  TGI: > 100 µM
A498 renal
  TGI: 52.6 µM
HL-60(TB) leukemia
  TGI: > 35.5 µM
UO-31 renal
  TGI: > 100 µM
CCRF-CEM leukemia
  TGI: 24.2 µM
LOX IMVI melanoma
  TGI: 32.8 µM
RXF 393 renal
  TGI: 57.9 µM
NCI-H23 lung
  TGI: > 94.5 µM
NCI/ADR-RES ovarian
  TGI: > 100 µM
HT29 colon
  TGI: > 62.8 µM
MALME-3M melanoma
  TGI: 35 µM
KM12 colon
  TGI: > 57.3 µM
DU-145 prostate
  TGI: > 70.8 µM
UACC-257 melanoma
  TGI: 33.5 µM
SK-MEL-2 melanoma
  TGI: 37.7 µM
NCI-H460 lung
  TGI: > 84.5 µM
NCI-H226 lung
  TGI: > 100 µM
SK-OV-3 ovarian
  TGI: > 100 µM
IGROV1 ovarian
  TGI: > 100 µM
MCF7 breast
  TGI: 53.1 µM
MDA-MB-231 breast
  TGI: > 100 µM
OVCAR-5 ovarian
  TGI: > 100 µM
HCT-116 colon
  TGI: > 100 µM
PC-3 prostate
  TGI: > 100 µM
M14 melanoma
  TGI: 25.5 µM
SNB-19 CNS
  TGI: > 100 µM
COLO 205 colon
  TGI: 28.8 µM
U251 CNS
  TGI: > 100 µM
RPMI-8226 leukemia
  TGI: 19.5 µM
ACHN renal
  TGI: > 100 µM
NCI-H522 lung
  TGI: > 100 µM
TK-10 renal
  TGI: > 100 µM
OVCAR-3 ovarian
  TGI: > 100 µM
A549 NSCLC
  TGI: > 100 µM
OVCAR-8 ovarian
  TGI: > 100 µM
CAKI-1 renal
  TGI: > 100 µM
SK-MEL-28 melanoma
  TGI: 30 µM
HS 578T breast
  TGI: > 95.1 µM
T-47D breast
  TGI: > 48 µM
EKVX NSCLC
  TGI: > 100 µM
SN12C renal
  TGI: > 100 µM
SW-620 colon
  TGI: > 100 µM
SF-295 CNS
  TGI: > 81.1 µM
786-0 renal
  TGI: 30.4 µM
BT-549 breast
  TGI: 99.7 µM
SNB-75 CNS
  TGI: > 85.1 µM
MDA-MB-435
  TGI: 32.6 µM
SF-539 CNS
  TGI: 27.3 µM
UACC-62 melanoma
  TGI: 32.1 µM
SK-MEL-5 melanoma
  TGI: 31 µM
K-562 leukemia
  TGI: 33.4 µM
SR leukemia
  TGI: 46 µM

Source: PubChem BioAssay (NCI)
